Tested on: Ascaris-sensitized sheep
Test: Airway hyperresponsiveness to carbachol (post/pre challenge PC400 ratio), Example 3
Type: in vivo
Experimental: Dose Response Curves to Inhaled Carbachol: For the carbachol dose response curves, measurements of SRL were repeated immediately after inhalation of buffer and after each administration of 10 breaths of increasing concentrations of carbachol solution (0.25%, 0.5%, 1.0%, 2.0% and 4.0% w/v). To assess airway responsiveness, the cumulative carbachol dose in breath units (BU) that increased SRL 400% over the post-buffer value (i.e. PC400) was calculated from the dose response curve. One breath unit was defined as one breath of a 1% w/v carbachol solution. The same basic protocol was used for all studies in Example 3. This basic protocol consisted of first obtaining baseline dose response curves to aerosol carbachol 1–3 days prior to antigen challenge. Then, on the day of antigen challenge, values of specific lung resistance (SRL) were measured at baseline and, then, 30 min after drug or vehicle (0.9% saline) treatment. The animals were, then, challenged with Ascaris suum antigen and SRL was remeasured immediately after challenge, hourly from 1–6 h after challenge and on the half-hour from 6 ½–8 h after challenge. Measurements of SRL were obtained 24 h after challenge followed by the 24 h post challenge dose response curve. Studies differed in time of treatment, treatment dose or route of administration. […] A second control challenge was done 2 weeks after the drug trial to insure that the 4 day treatment regimen had no carry-over effect. […] A second control challenge was done 2 weeks after the drug trial to insure that the 4 day treatment regimen had no carry-over effect. […] A second; control challenge was done 2 weeks after the drug trial to insure that the 4 day treatment regimen had no carry-over effect. […] Challenges were separated by 2 weeks. […] On the 15th day, the animals were treated and 30 min later, challenged with antigen. On the following day, after determining the post challenge PC400, the animals resumed treatment for another 14 days, after which, they were challenged with antigen (day 29). The animals were then left untreated for 14 days, after which an antigen challenge was conducted (day 43) and, then, this procedure was repeated after another 2 weeks (day 57). For each series, a repeated measures analysis of variance was performed to see if there were overall differences between the historical control the drug trial and the 2 week follow-up control or, in the case of experiments described in series 4 and 5, amongst the doses and different times, respectively. If a significant overall effect was found, then a two-tailed paired t-test were used to assess pairwise differences. The variables assessed were the peak early airway response (maximum increase in SRL 0–4 h after challenge), peak late airway response (maximum increase in SRL between 5–8 h after antigen challenge, irrespective of when this increase occurred for each sheep in each trial) and on the ratio of post challenge PC400 to pre challenge PC400. (Note: a ratio close to 1 indicates no airway hyperresponsiveness, whereas, a ratio close to 0.5 indicates the development of airway hyperresponsiveness.). Peak responses were used because they are the most conservative estimate of the overall effect. Values in the text and figures are mean±se for 3 sheep.

CCN(CCO)CCCC(C)Nc1ccnc2cc(Cl)ccc12 (centres unmarked) [HCQ, hydroxychloroquine]
effect on airway hyperresponsiveness (AHR) (aerosol 1 mg/kg twice a day for 4 days): protection
effect on antigen-induced AHR (aerosol 2 mg/kg once a day for 4 days): protection
effect on antigen-induced AHR (chronic treatment, aerosol 2 mg/kg once a day for up to 4 weeks): protection
effect on antigen-induced AHR (dose response, aerosol 0.2, 0.6 and 2 mg/kg once a day for 4 days): protection
effect on antigen-induced AHR (p.o. 1 mg/kg twice a day for 4 days): did not protect

Reference: patent US7183112B2, “Uses for anti-malarial therapeutic agents” (APT Pharmaceuticals, LLC, priority 1999, dated 2007)
